Values quoted from earlier work as cited in patent US20040220167A1, “Methods of treating neuralgic pain” (priority 2003, published 2004).

Conditions: in vivo

- fraction cleared via the kidneys: Less than 1%
- mean half-life: 5 to 6 h
- primary clearance route: primarily cleared through bile and feces
Substance: Verteporfin
